In patent US9394285B2 (Pfizer Inc., priority 2013, dated 2016):

Target: human AMPK (full-length γ1, β1 and α1 subunits) (Homo sapiens (Human), UniProt Q13131+Q9Y478)
Assay: AMPK in vitro biochemical assay (33P-based, SAMS peptide, PP2A dephosphorylation)
Conditions: for EC50: activation of phosphorylated AMPK, 33P-ATP, SAMS peptide, PP2A treatment, 4-parameter fit; for Emax: read-out: Maximum
From the text: We designed a tricistronic AMPK expression construct that included open reading frames encoding the full-length γ1, β1 and α1 subunits of human AMPK with a ribosome-binding site (RBS) ahead of each coding region and subcloned this into pET-14b expression vector (Novagen, Madison, Wis.) using standard molecular biology techniques. AMPK tricistronic construct was transformed into E. coli BL21-CodonPlus™ (DE3)-RIPL strain (Stratagene) and transformants were selected on LB (Luria-Bertani) agar plates containing ampicillin (100 μg/ml). […] Optical density sample measurements were made on an UltroSpec 2000 spectrophotometer (Pharmacia Biotech) at 600 nm. When the cell density reached ˜0.9 OD, the temperature was reduced to 18° C. and the culture was induced at 18° C. with 0.1 mM Isopropylthiogalactoside (IPTG). […] The cell pellets were aliquoted into four portions, flash frozen in liquid nitrogen and were stored at −80° C. until purification. For purification, frozen cell paste was thawed and resuspended in 50 ml lysis buffer (50 mM Tris, pH 8.0, 150 mM NaCl, 10% glycerol, 2 mM Tris-2-carboxyethyl phosphine (TCEP), 20 mM imidazole and 0.001% Triton X-100). After sonication, insoluble material was removed by centrifugation at 15,000 rpm in a Sorvall® RC5 plus centrifuge for 30 min at 4° C. and the supernatant was loaded onto a 5 ml HisTrap™ HP column (GE Healthcare, Piscataway, N.J.) and washed with five column volumes of lysis buffer. Bound proteins were eluted using an elution buffer containing 300 mM imidazole. Fractions containing AMPK subunits were pooled based on SDS-10% PAGE analysis and dialyzed overnight in dialysis buffer (50 mM Tris, pH 8.0, 150 mM NaCl, 10% glycerol, 2 mM TCEP, and 0.001% Triton X-100). […] The phosphorylated AMPK complex was re-purified on HisTrap™ HP column as before, dialyzed over night in dialysis buffer. The phosphorylated AMPK complex was further purified by gel filtration chromatography with a Superdex 200 HiLoad 16/60 column (GE Healthcare) in SEC buffer (50 mM Tris, pH 8.0, 150 mM NaCl, 10% glycerol, 2 mM TCEP, and 0.001% Triton X-100).
The harvest time (72 hours post infection) was indicated by percent cell viability (to 85-90%) and increased cell diameter (3-4 μm). […] For purification, the cell paste was resuspended in 500 mL lysis buffer (50 mM Tris pH 8.0, 150 mM NaCl, 25 mM imidazole, 10% glycerol, 2 mM MgCl2, 2 mM TCEP+protease inhibitor cocktail. After lysis, cellular debris was removed by centrifugation at 36K×g for 1 hour. The resulting supernatant was filtered at 0.2 micron before applying to a 1 mL nickel charged IMAC column (HisTrap, GE). The bound resin was washed to baseline with 50 CV of 50 mM Tris pH 8.0, 150 mM NaCl, 25 mM imidazole, 10% glycerol, 2 mM MgCl2, 2 mM TCEP before eluting over a 20 CV gradient to 100% with wash buffer containing 500 mM imidazole. Pooled fractions containing PP2A were combined and diluted 10× with 50 mM Tris pH 8.0, 10% glycerol, 1 mM TCEP and applied to a 1 mL AIEX resin (HiTrap QFF, GE). The bound resin was washed with dilution buffer and PP2A was eluted over a 20 CV gradient to 100% 50 mM Tris pH 8.0, 500 mM NaCl, 10% glycerol, 1 mM TCEP and was further diluted 1:1 with 50 mM Tris pH 8.0, 150 mM NaCl, 10% glycerol, and 1 mM TCEP buffer.
The biochemical EC50 (half-maximal concentration required for full activation) of compounds for the activation of AMPK was evaluated by ^33P-based assay using SAMS peptide (commercially available) derived from ACC-1. Twenty μl of phosphorylated AMPK diluted in assay buffer, (50 mM HEPES, 1 mM EGTA, 10 mM MgCl2, 0.25 mM DTT, 0.01% Tween-20, 0.01% BSA (pH 7.5)) was added to 384 well plates containing 1 μL of test compound. Following a fifteen minute room temperature incubation, 10 μL of protein phosphatase PP2A was added to the plate to dephosphorylate pThr172 of AMPK. […] The reaction was terminated after 60 minutes incubation at room temperature by the addition of 15 μL of 2% H3PO4.

[1] = counts as % of positive control wells (enzyme, allosteric activator or AMP, PP2A and substrate)

human AMPK (full-length γ1, β1 and α1 subunits), sequence (Q13131 whole entry): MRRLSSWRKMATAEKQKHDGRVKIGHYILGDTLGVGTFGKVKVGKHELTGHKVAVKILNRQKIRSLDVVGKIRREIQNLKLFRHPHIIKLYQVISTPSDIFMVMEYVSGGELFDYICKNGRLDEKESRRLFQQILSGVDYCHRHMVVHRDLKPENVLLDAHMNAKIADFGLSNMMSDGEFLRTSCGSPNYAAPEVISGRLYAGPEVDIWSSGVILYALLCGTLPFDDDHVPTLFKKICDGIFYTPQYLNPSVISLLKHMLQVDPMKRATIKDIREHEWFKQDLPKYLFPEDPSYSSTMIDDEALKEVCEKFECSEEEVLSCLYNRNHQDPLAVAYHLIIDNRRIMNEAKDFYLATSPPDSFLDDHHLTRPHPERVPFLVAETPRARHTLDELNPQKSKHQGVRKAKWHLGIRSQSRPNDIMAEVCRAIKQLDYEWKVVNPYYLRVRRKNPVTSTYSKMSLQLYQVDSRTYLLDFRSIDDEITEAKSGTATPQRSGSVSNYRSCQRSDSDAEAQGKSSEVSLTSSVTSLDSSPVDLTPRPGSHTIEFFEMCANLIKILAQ
human AMPK (full-length γ1, β1 and α1 subunits), sequence (Q9Y478 whole entry): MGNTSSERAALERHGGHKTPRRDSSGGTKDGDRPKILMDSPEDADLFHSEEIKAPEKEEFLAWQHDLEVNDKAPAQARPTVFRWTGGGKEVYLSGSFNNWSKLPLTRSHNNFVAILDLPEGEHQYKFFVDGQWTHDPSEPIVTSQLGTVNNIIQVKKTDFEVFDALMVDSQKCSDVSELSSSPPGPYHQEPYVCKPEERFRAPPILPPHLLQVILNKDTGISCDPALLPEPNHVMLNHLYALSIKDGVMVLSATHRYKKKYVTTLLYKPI
human AMPK (full-length γ1, β1 and α1 subunits), sequence (P54619 whole entry partner): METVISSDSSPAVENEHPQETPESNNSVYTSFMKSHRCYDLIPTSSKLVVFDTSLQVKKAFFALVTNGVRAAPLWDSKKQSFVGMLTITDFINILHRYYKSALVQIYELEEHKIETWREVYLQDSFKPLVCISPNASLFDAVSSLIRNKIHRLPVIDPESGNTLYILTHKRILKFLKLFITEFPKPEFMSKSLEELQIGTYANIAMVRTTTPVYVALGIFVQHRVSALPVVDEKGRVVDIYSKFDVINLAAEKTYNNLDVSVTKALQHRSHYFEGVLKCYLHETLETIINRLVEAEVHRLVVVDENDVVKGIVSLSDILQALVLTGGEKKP

EC50 | Emax [1] | Maximum [1] | Structure (SMILES)
10.1 nM | 132% |  | CS(=O)(=O)NC(=O)c1c[nH]c2cc(Cl)c(-c3ccc(C4(O)CCC4)cc3)cc12 [Example 147, 6-chloro-5-[4-(1-hydroxycyclobutyl)phenyl]-N-(methylsulfonyl)-1H-indole-3-carboxamide]
125 nM | 146% |  | COC[C@@H](C)Oc1ccc(-c2cc3c(C(=O)O)c[nH]c3cc2Cl)cc1 [Example 158, 6-chloro-5-(4-{[(2R)-1-methoxypropan-2-yl]oxy}phenyl)-1H-indole-3-carboxylic acid]
132 nM | 90% |  | COC(C)c1ccc(-c2cc3c(C(=O)O)n[nH]c3cc2Cl)cc1 (stereo not shown) [Example 125, 6-Chloro-5-(4-(1-methoxyethyl)phenyl)-1H-indazole-3-carboxylic acid]
7.8 nM | 65% |  | COc1cc(-c2cc3c(C(=O)O)c[nH]c3cc2Cl)ccc1C1(O)COC1 [Example 60, 6-chloro-5-[4-(3-hydroxyoxetan-3-yl)-3-methoxyphenyl]-1H-indole-3-carboxylic acid]
65.3 nM | 96% |  | O=C(O)c1c[nH]c2cc(Cl)c(-c3ccc(OC[C@@H]4CCCN4)cc3)cc12 [Example 47, 6-chloro-5-{4[(2S)-pyrrolidin-2-ylmethoxy]phenyl}-1H-indole-3-carboxylic acid]
122 nM | 84% |  | CC(=O)c1ccc(-c2cc3c(C(=O)O)n[nH]c3cc2Cl)cc1 [Example 105, 5-(4-Acetylphenyl)-6-chloro-1H-indazole-3-carboxylic acid]
40.4 nM | 117% |  | O=C(O)c1c[nH]c2cc(Cl)c(-c3ccc([C@H]4C[C@H](O)C4)cc3)cc12 [Example 138, 6-Chloro-5-[4-(trans-3-hydroxycyclobutyl)phenyl]-1H-indole-3-carboxylic acid]
47.8 nM |  | 126.9% | O=C(O)c1c[nH]c2cc(Cl)c(-c3ccc(C4CCCO4)cc3)cc12 (single isomer, unassigned) [Example 155, 6-chloro-5-[4-(tetrahydrofuran-2-yl)phenyl]-1H-indole-3-carboxylic acid]
320 nM | 93% |  | Cc1ccc(-c2cc3c(C(=O)O)c[nH]c3cc2Cl)cc1 [Example 51, 6-chloro-5-(4-methylphenyl)-1H-indole-3-carboxylic acid]
22.6 nM | 78.2% |  | COc1nc(N2CCC(OC)C2)ccc1-c1cc2c(C(=O)O)c[nH]c2cc1Cl (stereo in doubt) [Example 175, 6-chloro-5-{2-methoxy-6-[(3R)-3-methoxypyrrolidin-1-yl]pyridin-3-yl}-1H-indole-3-carboxylic acid]
206 nM | 90% |  | O=C(O)c1n[nH]c2cc(Cl)c(-c3ccc(C4CCCCC4)cc3)cc12 [Example 110, 6-Chloro-5-(4-cyclohexylphenyl)-1H-indazole-3-carboxylic acid]
192 nM | 123% |  | CC(C)c1ccc(-c2cc3c(C(=O)O)c[nH]c3cc2Cl)cc1 [Example 162, 6-chloro-5-[4-(propan-2-yl)phenyl]-1H-indole-3-carboxylic acid]
17.2 nM | 81% |  | O=C(O)c1n[nH]c2cc(Cl)c(-c3ccc(C4(CO)CCCC4)cc3)cc12 [Example 127, 6-Chloro-5-(4-(1-(hydroxymethyl)cyclopentyl)phenyl)-1H-indazole-3-carboxylic acid]
334 nM | 137% |  | COc1cc(-c2cc3c(C(=O)O)c[nH]c3cc2Cl)ccc1C(C)(C)O [Example 56, 6-chloro-5-(4-(2-hydroxypropan-2-yl)-3-methoxyphenyl)-1H-indole-3-carboxylic acid]
459 nM | 82% |  | O=C(O)c1c[nH]c2cc(Cl)c(-c3ccccc3)cc12 [Example 3, 6-Chloro-5-phenyl-1H-indole-3-carboxylic acid]
82.3 nM | 94% |  | O=C(O)c1n[nH]c2cc(Cl)c(-c3ccc(CCO)cc3)cc12 [Example 109, 6-Chloro-5-(4-(2-hydroxyethyl)phenyl)-1H-indazole-3-carboxylic acid]
130 nM | 104% |  | CCOc1ccc(-c2cc3c(C(=O)O)c[nH]c3cc2Cl)cc1 [Example 31, 6-Chloro-5-(4-ethoxyphenyl)-1H-indole-3-carboxylic acid]
47.8 nM | 98.6% |  | COC[C@H](C)Oc1ccc(-c2cc3c(C(=O)O)c[nH]c3cc2Cl)cc1 [Example 159, 6-chloro-5-(4-{[(2S)-1-methoxypropan-2-yl]oxy}phenyl)-1H-indole-3-carboxylic acid]
33.7 nM | 79% |  | CC(C)(O)c1ccc(-c2cc3c(C(=O)O)n[nH]c3cc2Cl)cc1 [Example 102, 6-Chloro-5-(4-(2-hydroxypropan-2-yl)phenyl)-1H-indazole-3-carboxylic acid]
248 nM | 81% |  | COc1ccc(-c2cc3c(C(=O)O)c[nH]c3cc2Cl)cc1OC [Example 37, 6-chloro-5-(3,4-dimethoxyphenyl)-1H-indole-3-carboxylic acid]
1050 nM | 83% |  | COc1ccc(-c2cc3c(C(=O)O)n[nH]c3cc2C)c(F)c1 [Example 98, 5-(2-Fluoro-4-methoxyphenyl)-6-methyl-1H-indazole-3-carboxylic acid]
89.2 nM | 107% |  | O=C(O)c1c[nH]c2cc(Cl)c(-c3ccc(OCCCO)c(F)c3)cc12 [Example 58, 6-chloro-5-[3-fluoro-4-(3-hydroxypropoxy)phenyl]-1H-indole-3-carboxylic acid]
11.6 nM | 76.2% |  | O=C(O)c1c[nH]c2cc(Cl)c(-c3ccc(OCCn4cccn4)cc3)cc12 [Example 180, 6-chloro-5-{4-[2-(1H-pyrazol-1-yl)ethoxy]phenyl}-1H-indole-3-carboxylic acid]
26.8 nM |  |  | O=C(O)c1n[nH]c2cc(Cl)c(-c3ccc([C@H]4C[C@H](O)C4)cc3)cc12 [Example 126, 6-Chloro-5-(4-((1R,3R)-3-hydroxycyclobutyl)phenyl)-1H-indazole-3-carboxylic acid]
2.3 nM | 57% |  | COc1cc(-c2cc3c(C(=O)O)c[nH]c3cc2Cl)ccc1C1(O)CCC1 [Example 61, 6-chloro-5-[4-(1-hydroxycyclobutyl)-3-methoxyphenyl]-1H-indole-3-carboxylic acid]
160 nM | 75% |  | NC(=O)C1(c2ccc(-c3cc4c(C(=O)O)n[nH]c4cc3Cl)cc2)CCC1 [Example 122, 5-(4-(1-Carbamoylcyclobutyl)phenyl)-6-chloro-1H-indazole-3-carboxylic acid]
1320 nM | 80% |  | O=C(O)c1n[nH]c2cc(Cl)c(-c3cccc(O)c3)cc12 [Example 112, 6-Chloro-5-(3-hydroxyphenyl)-1H-indazole-3-carboxylic acid]

Structure (SMILES) | EC50 | Emax [1] | Maximum [1]
COc1ccc(-c2cc3c(C(=O)O)n[nH]c3cc2Cl)cc1 [Example 97, 6-Chloro-5-(4-methoxyphenyl)-1H-indazole-3-carboxylic acid] | 202 nM | 94% | 
